Assay results taken from patent US20220304992A1, “METHODS OF REJUVENATING AGED TISSUE BY INHIBITING 15-HYDROXYPROSTAGLANDIN DEHYDROGENASE (15-PGDH)” (The Board of Trustees of the Leland Stanford Junior …, priority 2019, published 2022).
Entries after “also recorded” stand apart in the source; their conditions may differ.

How the values were obtained:
[1] = system: PGE2 and PGD2 levels in muscle tissue; test: LC-MS/MS of prostaglandins in muscle tissue lysates; assay type: in vivo, mouse; settings: aged mice, daily i.p., 1 month
Method: All prostaglandin standards-PGF2a; PGE2; PGD2; 15-keto PGE2; 13,14-dihydro 15-keto PGE2; PGE2-D4; and PGF2α-D9—were purchased from Cayman Chemical. For the PGE2-D4 internal standard, positions 3 and 4 were labeled with a total of four deuterium atoms. For PGF2α-D9, positions 17, 18, 19 and 20 were labeled with a total of nine deuterium atoms.
Analyte stock solutions (5 mg/mL) were prepared in DMSO. These stock solutions were serially diluted with acetonitrile/water (1:1 v/v) to obtain a series of standard working solutions, which were used to generate the calibration curve. […]
Solid tissues were harvested, weighed, and snap-frozen with liquid nitrogen. […] The dry residue was reconstituted in 100 μL acetonitrile/10 mM ammonium acetate (2:8 v/v) and analyzed by LC-MS/MS.
Since many prostaglandins are positional isomers with identical masses and have similar fragmentation patterns, chromatographic separation is critical. Two SRM transitions-one quantifier and one qualifier-were carefully selected for each analyte. […]
Quantitative analysis was done using LabSolutions LCMS (Shimadzu). An internal standard method was used for quantification: PGE2-D4 was used as an internal standard for quantification of PGE2, 15-keto PGE2, and 13, 14-dihydro 15-keto PGE2. […]

[2] = system: mdx4cv/mTRKO(G2) mice; test: Plantar flexion tetanic force in Duchenne muscular dystrophy mouse model; assay type: in vivo; settings: 8 month old mice, 4 weeks of treatment
Method: For ABT-263 treatments, 20 month old C57/B16 mice were treated with vehicle (ethanol:polyethylene glycol 400:Phosal 50 PG) or ABT-263 (in ethanol:polyethylene glycol 400:Phosal 50 PG) by oral gavage for 2 cycles of 1 week with a 2 week rest period between cycles as described previously (1). For the Duchenne muscular dystrophy (DMD) mouse model, we used 8-10 month old mdx4cv/mTRKO(G2) generated as previously described (2).
Time and distance to exhaustion was performed as previously described (4) for SW-treated mice and their controls (FIG. 3A).
The peak isometric torque (N·mm) of the ankle plantarflexors was assessed as previously described (8,9). Briefly, the foot of anesthetized mice was placed on a footplate attached to a servomotor (model 300C-LR; Aurora Scientific). Two Pt-Ir electrode needles (Aurora Scientific) […] subcutaneously over the tibial nerve, just posterior/posterior-medial to the knee. The ankle joint was secured at a 90° angle. The peak isometric torque was achieved by varying the current delivered to the tibial nerve at a frequency of 200 Hz and a 0.1-ms square wave pulse. We performed three tetanic measurements on each muscle, with 1 min recovery between each measurement. Data were collected with the Aurora Scientific Dynamic Muscle Data Acquisition and Analysis Software.

CCCC[S+]([O-])c1sc2nc(-c3cccs3)cc(-c3ccccc3)c2c1N (stereo not drawn) [SW033291, 2-(butylsulfinyl)-4-phenyl-6-(thiophen-2-yl)thieno[2,3-b]pyridin-3-amine] was tested, and the “PGD2 levels in muscle” value [1] was “increase”, the “PGE2 levels in muscle” value ([1]; listed as SW) was “elevated; also recorded: increase” and the “increase in muscle strength compared to vehicle treated controls” value [2] was 22%.
